The text below walks through data of ChEMBL document CHEMBL3997852, “Discovery of Fluorine-Containing Benzoxazinyl-oxazolidinones for the Treatment of Multidrug Resistant Tuberculosis” (ACS Med Chem Lett, 2017).

Values after ≈ are worked out from the molar mass of the structure shown.

The MIC90 is an inhibitory concentration at the 90% level, which refers to growth in some studies and to a panel of isolates in others. High values mean lower susceptibility, low ones higher susceptibility.

For experiment [1], the system named is Mycobacterium tuberculosis. In words: Antitubercular activity against isoniazid/rifampicin-resistant Mycobacterium tuberculosis 16892 clinical isolate after 7 days by microplate alamar blue assay. The class given is functional. To be noted: Mycobacterium tuberculosis, 16892, 168 h. Background: Alamar Blue is a resazurin reagent that responds to reducing activity.

For experiment [2], the system named is Mycobacterium tuberculosis. In words: Antitubercular activity against isoniazid/rifampicin/streptomycin/ethambutol/levofloxacin-resistant Mycobacterium tuberculosis 16802 clinical isolate after 7 days by microplate alamar blue assay. To be noted: Mycobacterium tuberculosis, 16802, 168 h. The class given is functional.

Consider `CC(=O)NC[C@@H]1OC(=O)N2c3cc(F)c(C4=CCN(C(=O)CO)CC4)cc3OC[C@@H]12`, for which the figures for the MIC90 in experiment [1] and in experiment [2] were 0.25 µg/mL (≈ 0.596 µM) and 0.5 µg/mL (≈ 1.19 µM), respectively.
On the same counts, the results for `CC(=O)NC[C@@H]1OC(=O)N2c3cc(F)c(C4=CCN(C(=O)[C@@H](O)CO)CC4)cc3OC[C@@H]12` are 0.25 µg/mL (≈ 0.556 µM) and 1 µg/mL (≈ 2.23 µM).
On the same counts, the results for `CC(=O)NC[C@@H]1OC(=O)N2c3cc(F)c(C4=CCN(C(=O)CN)CC4)cc3OC[C@@H]12.Cl` are 0.25 µg/mL and 2 µg/mL.
On the same counts, the results for `O=C(NC[C@@H]1OC(=O)N2c3cc(F)c(C4=CCN(CCO)CC4)cc3OC[C@@H]12)C1CC1` are 0.5 µg/mL (≈ 1.16 µM) and 1 µg/mL (≈ 2.32 µM).
Consider `CC(=O)NC[C@@H]1OC(=O)N2c3cc(F)c(C4=CCN(CCO)CC4)cc3OC[C@@H]12`, for which the results for the MIC90 in experiment [1] and in experiment [2] were 0.5 µg/mL (≈ 1.23 µM) and 2 µg/mL (≈ 4.93 µM), respectively.
On the same counts, the results for `CO[C@H]1/C=C/O[C@@]2(C)Oc3c(C)c(O)c4c(O)c(c(/C=N/N5CCN(C)CC5)c(O)c4c3C2=O)NC(=O)/C(C)=C\C=C\[C@H](C)[C@H](O)[C@@H](C)[C@@H](O)[C@@H](C)[C@H](OC(C)=O)[C@@H]1C` [RIFAMPIN] are greater than 40 µg/mL and 20 µg/mL (≈ 24.3 µM).
Take `NNC(=O)c1ccncc1` [ISONIAZID]: the MIC90 in experiment [1] is greater than 40 µg/mL; in experiment [2] it was 2.5 µg/mL (≈ 18.2 µM).
